# Measurements reported in US9944647B2 (Incyte Corporation, priority 2015, dated 2018).
# pIC50: −log10 of the molar value.
# Target: LSD-1 enzyme (Homo sapiens (Human), UniProt O60341)
# Assay: LANCE LSD1/KDM1A demethylase assay (LSD1 histone demethylase biochemical assay)
# Details: 1 nM LSD-1 enzyme, 1 hour preincubation at 25° C., Biotin-labeled Histone H3 peptide substrate
# Experimental: Example A: LSD1 Histone Demethylase Biochemical Assay
# LANCE LSD1/KDM1A demethylase assay—10 μL of 1 nM LSD-1 enzyme (ENZO BML-SE544-0050) in the assay buffer (50 mM Tris, pH 7.5, 0.01% Tween-20, 25 mM NaCl, 5 mM DTT) were preincubated for 1 hour at 25° C. with 0.8 μL compound/DMSO dotted in black 384 well polystyrene plates. […] Reactions were stopped by addition of 10 μL 1×LANCE Detection Buffer (PerkinElmer CR97-100) supplemented with 1.5 nM Eu-anti-unmodified H3K4 Antibody (PerkinElmer TRF0404), and 225 nM LANCE Ultra Streptavidin (PerkinElmer TRF102) along with 0.9 mM Tranylcypromine-HCl (Millipore 616431). After stopping the reactions plates were incubated for 30 minutes and read on a PHERAstar FS plate reader (BMG Labtech).
row,Compound,pIC50
1,"Cc1ncc(-c2c(-c3ccc(C#N)cc3)nc(OC[C@@H]3CCCN(C)C3)n3ccnc23)cc1Cl [Example 92, 4-(8-(5-chloro-6-methylpyridin-3-yl)-5-{[(3R)-1-methylpiperidin-3-yl]methoxy}imidazo[1,2-c]pyrimidin-7-yl)benzonitrile]",≥ 7.30
2,"Cn1ncc2cc(-c3c(-c4ccc(C#N)cc4)nc(OC[C@@H]4CCCN(CCC#N)C4)n4ccnc34)cnc21 [Example 33, 4-[5-{[(3R)-1-(2-cyanoethyl)piperidin-3-yl]methoxy}-8-(1-methyl-1H-pyrazolo[3,4-b]pyridin-5-yl)imidazo[1,2-c]pyrimidin-7-yl]benzonitrile]",≥ 7.30
3,"CN1CCC[C@@H](COc2nc(-c3ccc(C#N)cc3)c(-c3ccc(CO)cc3)c3nccn23)C1 [Example 36, 4-(8-[4-(hydroxymethyl)phenyl]-5-{[(3R)-1-methylpiperidin-3-yl]methoxy}imidazo[1,2-c]pyrimidin-7-yl)benzonitrile]",≥ 7.30
4,"CN1CCC[C@@H](COc2nc(-c3ccc(C#N)cc3)c(-c3cnc4c(c3)CCCN4C)c3nccn23)C1 [Example 78, 4-[5-{[(3R)-1-methylpiperidin-3-yl]methoxy}-8-(8-methyl-5,6,7,8-tetrahydro-1,8-naphthyridin-3-yl)imidazo[1,2-c]pyrimidin-7-yl]benzonitrile]",≥ 7.30
5,"CN(C)C(=O)N(C)Cc1ccc(-c2c(-c3ccc(C#N)cc3)nc(N3CCC(N(C)C)CC3)n3ccnc23)cc1F [Example 97, N-(4-{7-(4-cyanophenyl)-5-[4-(dimethylamino)piperidin-1-yl]imidazo[1,2-c]pyrimidin-8-yl}-2-fluorobenzyl)-N,N′,N′-trimethylurea]",≥ 7.30
6,"CN1CC[C@@H](COc2nc(-c3ccc(C#N)cc3)c(-c3ccc(N(C)C)nc3)c3nccn23)C1 [Example 21, 4-(8-[6-(dimethylamino)pyridin-3-yl]-5-{[(3R)-1-methylpyrrolidin-3-yl]methoxy}imidazo[1,2-c]pyrimidin-7-yl)benzonitrile]",6.30 to 7.30
7,"CN(C)C1CCN(c2nc(-c3ccc(C#N)cc3)c(-c3ccc4scnc4c3)c3nccn23)CC1 [Example 120, 4-{8-(1,3-benzothiazol-5-yl)-5-[4-(dimethylamino)piperidin-1-yl]imidazo[1,2-c]pyrimidin-7-yl}benzonitrile]",≥ 7.30
8,"Cc1ncc(-c2c(-c3ccc(C#N)cc3)nc(N3CCC(N(C)C)CC3)n3ccnc23)cc1C#N [Example 66, 5-{7-(4-cyanophenyl)-5-[4-(dimethylamino)piperidin-1-yl]imidazo[1,2-c]pyrimidin-8-yl}-2-methylnicotinonitrile]",6.30 to 7.30
9,"COc1ncc(-c2c(-c3ccc(C#N)cc3)nc(OC[C@@H]3CCCN(CCO)C3)n3ccnc23)cc1F [Example 57, 4-(8-(5-fluoro-6-methoxypyridin-3-yl)-5-{[(3R)-1-(2-hydroxyethyl)piperidin-3-yl]methoxy}imidazo[1,2-c]pyrimidin-7-yl)benzonitrile]",≥ 7.30
10,"Cc1ccc(-c2c(-c3ccc(C#N)cc3)nc(OC[C@@H]3CCCN(C)C3)n3ccnc23)cc1C#N [Example 96, 5-(7-(4-cyanophenyl)-5-{[(3R)-1-methylpiperidin-3-yl]methoxy}imidazo[1,2-c]pyrimidin-8-yl)-2-methylbenzonitrile]",≥ 7.30
11,"COc1ncc(-c2c(-c3ccc(C#N)cc3)nc(OC[C@@H]3CCCN(C)C3)n3ccnc23)cc1Cl [Example 88, 4-(8-(5-chloro-6-methoxypyridin-3-yl)-5-{[(3R)-1-methylpiperidin-3-yl]methoxy}imidazo[1,2-c]pyrimidin-7-yl)benzonitrile]",≥ 7.30
12,"CN1CCC[C@@H](COc2nc(-c3ccc(C#N)cc3)c(-c3ccc4c(c3)CC(O)C4)c3nccn23)C1 (stereo partly drawn) [Example 124, 4-(8-(2-hydroxy-2,3-dihydro-1H-inden-5-yl)-5-{[(3R)-1-methylpiperidin-3-yl]methoxy}imidazo[1,2-c]pyrimidin-7-yl)benzonitrile]",≥ 7.30
13,"CCc1ccc(-c2c(-c3ccc(C#N)cc3)nc(OC[C@@H]3CCCN(C)C3)n3ccnc23)cn1 [Example 107, 4-(8-(6-ethylpyridin-3-yl)-5-{[(3R)-1-methylpiperidin-3-yl]methoxy}imidazo[1,2-c]pyrimidin-7-yl)benzonitrile]",6.30 to 7.30
14,"CN1CCC[C@@H](COc2nc(-c3ccc(C#N)cc3)c(-c3ccc4c(c3)c(N)nn4C)c3nccn23)C1 [Example 42, 4-(8-(3-amino-1-methyl-1H-indazol-5-yl)-5-{[(3R)-1-methylpiperidin-3-yl]methoxy}imidazo[1,2-c]pyrimidin-7-yl)benzonitrile]",≥ 7.30
15,"CN1CC[C@@H](COc2nc(-c3ccc(C#N)cc3)c(-c3ccc4c(c3)CC(=O)N4C)c3nccn23)C1 [Example 23, 4-(8-(1-methyl-2-oxo-2,3-dihydro-1H-indol-5-yl)-5-{[(3R)-1-methylpyrrolidin-3-yl]methoxy}imidazo[1,2-c]pyrimidin-7-yl)benzonitrile]",6.30 to 7.30
16,"CN(C)[C@@H]1CCN(c2nc(-c3ccc(C#N)cc3)c(-c3cnc4c(cnn4C)c3)c3nccn23)C1 [Example 38, 4-[5-[(3R)-3-(dimethylamino)pyrrolidin-1-yl]-8-(1-methyl-1H-pyrazolo[3,4-b]pyridin-5-yl)imidazo[1,2-c]pyrimidin-7-yl]benzonitrile]",≥ 7.30
17,"CCN1CCC[C@@H](COc2nc(-c3ccc(C#N)cc3)c(-c3cc(C)c(CO)c(F)c3)c3nccn23)C1 [Example 109, 4-{5-{[(3R)-1-ethylpiperidin-3-yl]methoxy}-8-[3-fluoro-4-(hydroxymethyl)-5-methylphenyl]imidazo[1,2-c]pyrimidin-7-yl}benzonitrile]",≥ 7.30
18,"COc1ncc(-c2c(-c3ccc(C#N)cc3)nc(OC[C@@H]3CCCN(CCC#N)C3)n3ccnc23)cc1F [Example 81, 4-[5-{[(3R)-1-(2-cyanoethyl)piperidin-3-yl]methoxy}-8-(5-fluoro-6-methoxypyridin-3-yl)imidazo[1,2-c]pyrimidin-7-yl]benzonitrile]",6.30 to 7.30
19,"CN1CCC[C@@H](COc2nc(-c3ccc(C#N)cc3)c(-c3ccc(CN4CCOCC4)cc3F)c3nccn23)C1 [Example 95, 4-(8-[2-fluoro-4-(morpholin-4-ylmethyl)phenyl]-5-{[(3R)-1-methylpiperidin-3-yl]methoxy}imidazo[1,2-c]pyrimidin-7-yl)benzonitrile]",≥ 7.30
20,"CC(C)c1ccc(-c2c(-c3ccc(C#N)cc3)nc(OC[C@@H]3CCCN(C)C3)n3ccnc23)cn1 [Example 108, 4-(8-(6-isopropylpyridin-3-yl)-5-{[(3R)-1-methylpiperidin-3-yl]methoxy}imidazo[1,2-c]pyrimidin-7-yl)benzonitrile]",6.30 to 7.30
21,"Cc1cc(-c2c(-c3ccc(C#N)cc3)nc(N3CCC(N(C)C)CC3)n3ccnc23)ccc1CO [Example 91, 4-{5-[4-(dimethylamino)piperidin-1-yl]-8-[4-(hydroxymethyl)-3-methylphenyl]imidazo[1,2-c]pyrimidin-7-yl}benzonitrile]",≥ 7.30
22,"CN1CCC[C@@H](COc2nc(-c3ccc(C#N)cc3)c(-c3cc(F)c(CO)c(F)c3)c3nccn23)C1 [Example 32, 4-(8-[3,5-difluoro-4-(hydroxymethyl)phenyl]-5-{[(3R)-1-methylpiperidin-3-yl]methoxy}imidazo[1,2-c]pyrimidin-7-yl)benzonitrile]",≥ 7.30
23,"CN(C)C1CCN(c2nc(-c3ccc(C#N)cc3)c(-c3cnc4c(ccn4C)c3)c3nccn23)CC1 [Example 125, 4-[5-[4-(dimethylamino)piperidin-1-yl]-8-(1-methyl-1H-pyrrolo[2,3-b]pyridin-5-yl)imidazo[1,2-c]pyrimidin-7-yl]benzonitrile]",≥ 7.30
24,"CN(C)C1CCN(c2nc(-c3ccc(C#N)cc3)c(-c3ccc4c(c3F)n(C)c(=O)n4C)c3nccn23)CC1 [Example 127, 4-[5-[4-(dimethylamino)piperidin-1-yl]-8-(4-fluoro-1,3-dimethyl-2-oxo-2,3-dihydro-1H-benzimidazol-5-yl)imidazo[1,2-c]pyrimidin-7-yl]benzonitrile]",≥ 7.30
25,"CN1CCC[C@@H](COc2nc(-c3ccc(C#N)cc3)c(-c3ccc(CN4CCOCC4)cc3)c3nccn23)C1 [Example 12, 4-{5-{[(3R)-1-methylpiperidin-3-yl]methoxy}-8-[4-(morpholin-4-ylmethyl)phenyl]imidazo[1,2-c]pyrimidin-7-yl}benzonitrile]",6.30 to 7.30
26,"CN1CCC[C@@H](COc2nc(-c3ccc(C#N)cc3)c(-c3cc(F)c4c(c3)oc(=O)n4C)c3nccn23)C1 [Example 59, 4-(8-(4-fluoro-3-methyl-2-oxo-2,3-dihydro-1,3-benzoxazol-6-yl)-5-{[(3R)-1-methylpiperidin-3-yl]methoxy}imidazo[1,2-c]pyrimidin-7-yl)benzonitrile]",≥ 7.30
27,"CN1CCC[C@@H](COc2nc(-c3ccc(C#N)cc3)c(-c3ccc4c(c3)CC(=O)N4C)c3nccn23)C1 [Example 6, 4-(8-(1-methyl-2-oxo-2,3-dihydro-1H-indol-5-yl)-5-{[(3R)-1-methylpiperidin-3-yl]methoxy}imidazo[1,2-c]pyrimidin-7-yl)benzonitrile]",6.30 to 7.30
28,"CN1CCC[C@@H](COc2nc(-c3ccc(C#N)cc3)c(-c3ccc4c(cnn4C)c3)c3nccn23)C1 [Example 8, 4-(8-(1-methyl-1H-indazol-5-yl)-5-{[(3R)-1-methylpiperidin-3-yl]methoxy}imidazo[1,2-c]pyrimidin-7-yl)benzonitrile]",≥ 7.30
29,"CN(C)C1CCN(c2nc(-c3ccc(C#N)cc3)c(-c3ccc4c(cnn4C)c3)c3nccn23)CC1 [Example 46, 4-[5-[4-(dimethylamino)piperidin-1-yl]-8-(1-methyl-1H-indazol-5-yl)imidazo[1,2-c]pyrimidin-7-yl]benzonitrile]",≥ 7.30
